Results from ChEMBL document CHEMBL1150788, “In vitro susceptibility of Sporothrix schenckii to six antifungal agents determined using three different methods” (2007).
Converted amounts (≈) assume the structure as drawn.

Experiments:
Type in all cases: functional
Sporothrix schenckii [1] = assay: Antifungal activity against Sporothrix schenckii P3287 isolate from cutaneous-lymphatic sporotrichosis patient after 72 hrs by ATB Fungus 2 method
Sporothrix schenckii [2] = assay: Antifungal activity against Sporothrix schenckii P0019 isolate from cutaneous-lymphatic sporotrichosis patient after 72 hrs by Sensititre YeastOne method
Sporothrix schenckii [3] = assay: Antifungal activity against Sporothrix schenckii P0019 isolate from cutaneous-lymphatic sporotrichosis patient after 72 hrs by ATB Fungus 2 method
Sporothrix schenckii [4] = assay: Antifungal activity against Sporothrix schenckii PSSA81 isolate from cutaneous-lymphatic sporotrichosis patient after 72 hrs by Sensititre YeastOne method
Sporothrix schenckii [5] = assay: Antifungal activity against Sporothrix schenckii P25013 isolate from cutaneous-lymphatic sporotrichosis patient after 72 hrs by Sensititre YeastOne method
Sporothrix schenckii [6] = assay: Antifungal activity against Sporothrix schenckii P25013 isolate from cutaneous-lymphatic sporotrichosis patient after 72 hrs by ATB Fungus 2 method
Sporothrix schenckii [7] = assay: Antifungal activity against Sporothrix schenckii P20825 isolate from cutaneous-lymphatic sporotrichosis patient after 72 hrs by Sensititre YeastOne method
Sporothrix schenckii [8] = assay: Antifungal activity against Sporothrix schenckii P20825 isolate from cutaneous-lymphatic sporotrichosis patient after 72 hrs by ATB Fungus 2 method
Sporothrix schenckii [9] = assay: Antifungal activity against Sporothrix schenckii P30019 isolate from cutaneous-lymphatic sporotrichosis patient after 72 hrs by modified NCCLS M38-A method
Sporothrix schenckii [10] = assay: Antifungal activity against Sporothrix schenckii P30019 isolate from cutaneous-lymphatic sporotrichosis patient after 72 hrs by Sensititre YeastOne method
Sporothrix schenckii [11] = assay: Antifungal activity against Sporothrix schenckii P30019 isolate from cutaneous-lymphatic sporotrichosis patient after 72 hrs by ATB Fungus 2 method
Sporothrix schenckii [12] = assay: Antifungal activity against Sporothrix schenckii P14954 isolate from cutaneous-lymphatic sporotrichosis patient after 72 hrs by Sensititre YeastOne method
Sporothrix schenckii [13] = assay: Antifungal activity against Sporothrix schenckii P14954 isolate from cutaneous-lymphatic sporotrichosis patient after 72 hrs by ATB Fungus 2 method
Sporothrix schenckii [14] = assay: Antifungal activity against Sporothrix schenckii MRSS4 isolate from cutaneous-lymphatic sporotrichosis patient after 72 hrs by Sensititre YeastOne method
Sporothrix schenckii [15] = assay: Antifungal activity against Sporothrix schenckii MRSS4 isolate from cutaneous-lymphatic sporotrichosis patient after 72 hrs by ATB Fungus 2 method
Sporothrix schenckii [16] = assay: Antifungal activity against Sporothrix schenckii P24223 isolate from cutaneous-lymphatic sporotrichosis patient after 72 hrs by Sensititre YeastOne method
Sporothrix schenckii [17] = assay: Antifungal activity against Sporothrix schenckii P24223 isolate from cutaneous-lymphatic sporotrichosis patient after 72 hrs by ATB Fungus 2 method
Sporothrix schenckii [18] = assay: Antifungal activity against Sporothrix schenckii PSCC1 isolate from cutaneous-lymphatic sporotrichosis patient after 72 hrs by Sensititre YeastOne method
Sporothrix schenckii [19] = assay: Antifungal activity against Sporothrix schenckii PSCC1 isolate from cutaneous-lymphatic sporotrichosis patient after 72 hrs by ATB Fungus 2 method
Sporothrix schenckii [20] = assay: Antifungal activity against Sporothrix schenckii P24255 isolate from cutaneous-lymphatic sporotrichosis patient after 72 hrs by Sensititre YeastOne method
Sporothrix schenckii [21] = assay: Antifungal activity against Sporothrix schenckii P24255 isolate from cutaneous-lymphatic sporotrichosis patient after 72 hrs by ATB Fungus 2 method
Sporothrix schenckii [22] = assay: Antifungal activity against Sporothrix schenckii P10012 isolate from cutaneous-lymphatic sporotrichosis patient after 72 hrs by Sensititre YeastOne method
Sporothrix schenckii [23] = assay: Antifungal activity against Sporothrix schenckii P10012 isolate from cutaneous-lymphatic sporotrichosis patient after 72 hrs by ATB Fungus 2 method
Sporothrix schenckii [24] = assay: Antifungal activity against Sporothrix schenckii P1621 isolate from cutaneous-lymphatic sporotrichosis patient after 72 hrs by Sensititre YeastOne method
Sporothrix schenckii [25] = assay: Antifungal activity against Sporothrix schenckii P1621 isolate from cutaneous-lymphatic sporotrichosis patient after 72 hrs by ATB Fungus 2 method
Sporothrix schenckii [26] = assay: Antifungal activity against Sporothrix schenckii SSA29 isolate from cutaneous-lymphatic sporotrichosis patient after 72 hrs by Sensititre YeastOne method
Sporothrix schenckii [27] = assay: Antifungal activity against Sporothrix schenckii SSA29 isolate from cutaneous-lymphatic sporotrichosis patient after 72 hrs by ATB Fungus 2 method
Sporothrix schenckii [28] = assay: Antifungal activity against Sporothrix schenckii P26187 isolate from cutaneous-lymphatic sporotrichosis patient after 72 hrs by Sensititre YeastOne method
Sporothrix schenckii [29] = assay: Antifungal activity against Sporothrix schenckii P26187 isolate from cutaneous-lymphatic sporotrichosis patient after 72 hrs by ATB Fungus 2 method
Sporothrix schenckii [30] = assay: Antifungal activity against Sporothrix schenckii PGAC0016 isolate from cutaneous-lymphatic sporotrichosis patient after 72 hrs by Sensititre YeastOne method
Sporothrix schenckii [31] = assay: Antifungal activity against Sporothrix schenckii PGAC0016 isolate from cutaneous-lymphatic sporotrichosis patient after 72 hrs by ATB Fungus 2 method
Sporothrix schenckii [32] = assay: Antifungal activity against Sporothrix schenckii PJRC002 isolate from cutaneous-lymphatic sporotrichosis patient after 72 hrs by Sensititre YeastOne method
Sporothrix schenckii [33] = assay: Antifungal activity against Sporothrix schenckii PJRC002 isolate from cutaneous-lymphatic sporotrichosis patient after 72 hrs by ATB Fungus 2 method
Sporothrix schenckii [34] = assay: Antifungal activity against Sporothrix schenckii P14036 isolate from cutaneous-lymphatic sporotrichosis patient after 72 hrs by Sensititre YeastOne method
Sporothrix schenckii [35] = assay: Antifungal activity against Sporothrix schenckii P14036 isolate from cutaneous-lymphatic sporotrichosis patient after 72 hrs by ATB Fungus 2 method
Sporothrix schenckii [36] = assay: Antifungal activity against Sporothrix schenckii P30915 isolate from cutaneous-lymphatic sporotrichosis patient after 72 hrs by Sensititre YeastOne method
Sporothrix schenckii [37] = assay: Antifungal activity against Sporothrix schenckii P30915 isolate from cutaneous-lymphatic sporotrichosis patient after 72 hrs by ATB Fungus 2 method
Sporothrix schenckii [38] = assay: Antifungal activity against Sporothrix schenckii P3287 isolate from cutaneous-lymphatic sporotrichosis patient after 72 hrs by Sensititre YeastOne method
Pichia kudriavzevii [39] = assay: Antifungal activity against Candida krusei ATCC 6258 […] after 72 hrs by modified NCCLS M38-A method; settings: ATCC 6258, 72 h
Pichia kudriavzevii [40] = assay: Antifungal activity against Candida krusei ATCC 6258 […] after 72 hrs by Sensititre YeastOne method; settings: ATCC 6258, 72 h
Pichia kudriavzevii [41] = assay: Antifungal activity against Candida krusei ATCC 6258 […] after 72 hrs by ATB Fungus 2 method; settings: ATCC 6258, 72 h
Candida parapsilosis [42] = assay: Antifungal activity against Candida parapsilosis ATCC 22019 […] after 72 hrs by modified NCCLS M38-A method; settings: Lodderomyces parapsilosis, ATCC 22019, 72 h
Candida parapsilosis [43] = assay: Antifungal activity against Candida parapsilosis ATCC 22019 […] after 72 hrs by Sensititre YeastOne method; settings: Lodderomyces parapsilosis, ATCC 22019, 72 h
Candida parapsilosis [44] = assay: Antifungal activity against Candida parapsilosis ATCC 22019 […] after 72 hrs by ATB Fungus 2 method; settings: Lodderomyces parapsilosis, ATCC 22019, 72 h
Sporothrix schenckii [45] = assay: Antifungal activity against Sporothrix schenckii isolate from cutaneous-lymphatic sporotrichosis patient after 72 hrs by modified NCCLS M38-A method
Sporothrix schenckii [46] = assay: Antifungal activity against Sporothrix schenckii isolate from cutaneous-lymphatic sporotrichosis patient after 72 hrs by Sensititre YeastOne method
Sporothrix schenckii [47] = assay: Antifungal activity against Sporothrix schenckii isolate from cutaneous-lymphatic sporotrichosis patient after 72 hrs by ATB Fungus 2 method

With Nc1nc(=O)[nH]cc1F [FLUCYTOSINE] the MIC (Sporothrix schenckii [1]) was > 64 µg/mL, the MIC (Sporothrix schenckii [2]) was 16 µg/mL (≈ 124 µM) and the MIC (Sporothrix schenckii [3]) was > 64 µg/mL. It also gave an MIC (Sporothrix schenckii [4]) of 1 µg/mL (≈ 7.75 µM), an MIC (Sporothrix schenckii [5]) of 32 µg/mL (≈ 248 µM) and an MIC (Sporothrix schenckii [6]) of 64 µg/mL (≈ 496 µM). For the same compound, the MIC (Sporothrix schenckii [7]) was 8 µg/mL (≈ 62 µM), the MIC (Sporothrix schenckii [8]) was 32 µg/mL (≈ 248 µM) and the MIC (Sporothrix schenckii [9]) was 4 µg/mL (≈ 31 µM). For the same compound, the MIC (Sporothrix schenckii [10]) was 1 µg/mL (≈ 7.75 µM), the MIC (Sporothrix schenckii [11]) was 64 µg/mL (≈ 496 µM) and the MIC (Sporothrix schenckii [12]) was 32 µg/mL (≈ 248 µM). For the same compound, the MIC (Sporothrix schenckii [13]) was > 64 µg/mL, the MIC (Sporothrix schenckii [14]) was 16 µg/mL (≈ 124 µM) and the MIC (Sporothrix schenckii [15]) was > 64 µg/mL. For the same compound, the MIC (Sporothrix schenckii [16]) was 16 µg/mL (≈ 124 µM), the MIC (Sporothrix schenckii [17]) was > 64 µg/mL and the MIC (Sporothrix schenckii [18]) was > 64 µg/mL. The MIC (Sporothrix schenckii [19]) was > 64 µg/mL, the MIC (Sporothrix schenckii [20]) was 16 µg/mL (≈ 124 µM) and the MIC (Sporothrix schenckii [21]) was 64 µg/mL (≈ 496 µM). For the same compound, the MIC (Sporothrix schenckii [22]) was 8 µg/mL (≈ 62 µM), the MIC (Sporothrix schenckii [23]) was 64 µg/mL (≈ 496 µM) and the MIC (Sporothrix schenckii [24]) was 8 µg/mL (≈ 62 µM). For the same compound, the MIC (Sporothrix schenckii [25]) was 8 µg/mL (≈ 62 µM), the MIC (Sporothrix schenckii [26]) was 16 µg/mL (≈ 124 µM) and the MIC (Sporothrix schenckii [27]) was 32 µg/mL (≈ 248 µM). The MIC (Sporothrix schenckii [28]) was 8 µg/mL (≈ 62 µM), the MIC (Sporothrix schenckii [29]) was 64 µg/mL (≈ 496 µM) and the MIC (Sporothrix schenckii [30]) was 16 µg/mL (≈ 124 µM). For the same compound, the MIC (Sporothrix schenckii [31]) was > 64 µg/mL, the MIC (Sporothrix schenckii [32]) was 8 µg/mL (≈ 62 µM) and the MIC (Sporothrix schenckii [33]) was 64 µg/mL (≈ 496 µM). It also gave an MIC (Sporothrix schenckii [34]) of 32 µg/mL (≈ 248 µM), an MIC (Sporothrix schenckii [35]) of 64 µg/mL (≈ 496 µM) and an MIC (Sporothrix schenckii [36]) of 16 µg/mL (≈ 124 µM). For the same compound, the MIC (Sporothrix schenckii [37]) was > 64 µg/mL, the MIC (Sporothrix schenckii [38]) was 16 µg/mL (≈ 124 µM) and the MIC (Pichia kudriavzevii [39]) was 16 µg/mL (≈ 124 µM). For the same compound, the MIC (Pichia kudriavzevii [40]) was 32 µg/mL (≈ 248 µM), the MIC (Pichia kudriavzevii [41]) was 32 µg/mL (≈ 248 µM) and the MIC (Candida parapsilosis [42]) was 0.5 µg/mL (≈ 3.87 µM). The MIC (Candida parapsilosis [43]) was 1 µg/mL (≈ 7.75 µM), the MIC (Candida parapsilosis [44]) was 1 µg/mL (≈ 7.75 µM) and the MIC50 (Sporothrix schenckii [45]) was > 64 µg/mL. It also gave an MIC50 (Sporothrix schenckii [46]) of 16 µg/mL (≈ 124 µM), an MIC90 (Sporothrix schenckii [46]) of 32 µg/mL (≈ 248 µM) and an MIC50 (Sporothrix schenckii [47]) of 64 µg/mL (≈ 496 µM). The MIC90 (Sporothrix schenckii [47]) was > 64 µg/mL.
